Assay results taken from patent US11986532B2 (Arvinas Operations, Inc., priority 2021, dated 2024).
Like-named read-outs stand apart in the source and are kept apart here.

Biological target: T1, BCL6 (Homo sapiens, UniProt P41182)
T1 construct: endogenous in cells; host or cells: T47D breast cancer epithelial cells
Assay: Immunofluorescence protocol for high content imaging of BCL6 (degradation) in T47D cells, 3 days compound treatment
Type: cell-based
Conditions: for Dmax: read-out: Mean Dmax (%)** category; for DC50: read-out: Mean DC50 (nM)* category
Method in brief: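 Cells are seeded to reach ~70-90% confluence at endpoint, then dosed next day with compound at a final top concentration of 0.1 or 1 μM (11 points, 3-fold). After 3 days, BCL6 is detected by immunofluorescence and quantified by high-content imaging.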

[1] = T47D cells, 3 days compound treatment

Compound	Dmax (T47D)	DC50	DC50 [1]	Dmax [1]
CNC(=O)COc1cc2cc(Nc3nc(N4CCC(O[C@H]5C[C@H](N6CCC(c7ccc8c(c7F)[C@H](C)N([C@H]7CCC(=O)NC7=O)C8=O)CC6)C5)CC4)ncc3Cl)ccc2n(C(C)C)c1=O [Compound 290, 2-({6-[(5-chloro-2-{4-[(1r,3r)-3-{4-[(3S)-2-[(3S)-2,6-dioxopiperidin-3-yl]-4-fluoro-3-methyl-1-oxo-2,3-dihydro-1H-isoindol-5-yl]piperidin-1-yl}cyclobutoxy]piperidin-1-yl}pyrimidin-4-yl)amino]-2-oxo-1-(propan-2-yl)-1,2-dihydroquinolin-3-yl}oxy)-N-methylacetamide]	≥ 70%	< 10 nM	–	–
CNC(=O)COc1cc2cc(Nc3nc(N4CCC(O[C@H]5C[C@H](N6CCC(c7ccc8c(c7)C(=O)N(C7CCC(=O)NC7=O)C8=O)C6)C5)CC4)ncc3Cl)ccc2n(C(C)C)c1=O (stereo partly drawn) [Compound 256, 2-({6-[(5-chloro-2-{4-[(1r,3r)-3-{3-[2-(2,6-dioxopiperidin-3-yl)-1,3-dioxo-2,3-dihydro-1H-isoindol-5-yl]pyrrolidin-1-yl}cyclobutoxy]piperidin-1-yl}pyrimidin-4-yl)amino]-2-oxo-1-(propan-2-yl)-1,2-dihydroquinolin-3-yl}oxy)-N-methylacetamide]	50 to 70%	10 to 50 nM	–	–
CNC(=O)COc1cc2cc(Nc3nc(N4CCC(O[C@H]5C[C@H](N6CCN(c7ccc8c(c7F)CN(C7CCC(=O)NC7=O)C8=O)C[C@@H]6C)C5)CC4)ncc3Cl)ccc2n(C(C)C)c1=O (stereo partly drawn) [Compound 178]	–	–	< 10 nM	≥ 70%
CNC(=O)COc1cc2cc(Nc3nc(N4CCC(CN5CCC6(CC5)CN(c5ccc7c(c5C(C)C)CN(C5CCC(=O)NC5=O)C7=O)C6)CC4)ncc3Cl)ccc2n(C(C)C)c1=O (stereo not drawn) [Compound 272, 2-{[6-({5-chloro-2-[4-({2-[2-(2,6-dioxopiperidin-3-yl)-1-oxo-4-(propan-2-yl)-2,3-dihydro-1H-isoindol-5-yl]-2,7-diazaspiro[3.5]nonan-7-yl}methyl)piperidin-1-yl]pyrimidin-4-yl}amino)-2-oxo-1-(propan-2-yl)-1,2-dihydroquinolin-3-yl]oxy}-N-methylacetamide]	50 to 70%	< 10 nM	–	–
CNC(=O)COc1cc2cc(Nc3nc(N4CCC(OC5CN([C@H]6CC[C@H](c7ccc8c(c7F)CN(C7CCC(=O)NC7=O)C8=O)CC6)C5)CC4)ncc3Cl)ccc2n(C(C)C)c1=O (stereo partly drawn) [Compound 183, 2-{[6-({5-chloro-2-[4-({1-[(1r,4r)-4-[2-(2,6-dioxopiperidin-3-yl)-4-fluoro-1-oxo-2,3-dihydro-1H-isoindol-5-yl]cyclohexyl]azetidin-3-yl}oxy)piperidin-1-yl]pyrimidin-4-yl}amino)-2-oxo-1-(propan-2-yl)-1,2-dihydroquinolin-3-yl]oxy}-N-methylacetamide]	–	–	< 10 nM	≥ 70%
CNC(=O)COc1cc2cc(Nc3nc(N4CCC(O[C@H]5C[C@H](N6CCC(c7ccc8c(c7F)CN(C7CCC(=O)NC7=O)C8=O)C(C)(C)C6)C5)CC4)ncc3Cl)ccc2n(C(C)C)c1=O (stereo partly drawn) [Compound 187, 2-({6-[(5-chloro-2-{4-[(1r,3r)-3-{4-[2-(2,6-dioxopiperidin-3-yl)-4-fluoro-1-oxo-3H-isoindol-5-yl]-3,3-dimethylpiperidin-1-yl}cyclobutoxy]piperidin-1-yl}pyrimidin-4-yl)amino]-1-isopropyl-2-oxoquinolin-3-yl}oxy)-N-methylacetamide]	–	–	< 10 nM	≥ 70%
CNC(=O)COc1cc2cc(Nc3nc(N4CCC(O[C@H]5C[C@H](N6CC[C@H](c7ccc8c(c7F)CN([C@H]7CCC(=O)NC7=O)C8=O)C(C)(C)C6)C5)CC4)ncc3Cl)ccc2n(C(C)C)c1=O [Compound 210, 2-({6-[(5-chloro-2-{4-[(1r,3r)-3-[(4S)-4-{2-[(3S)-2,6-dioxopiperidin-3-yl]-4-fluoro-1-oxo-2,3-dihydro-1H-isoindol-5-yl}-3,3-dimethylpiperidin-1-yl]cyclobutoxy]piperidin-1-yl}pyrimidin-4-yl)amino]-2-oxo-1-(propan-2-yl)-1,2-dihydroquinolin-3-yl}oxy)-N-methylacetamide]	–	–	< 10 nM	≥ 70%
CNC(=O)COc1cc2cc(Nc3nc(N4CCC(OC5CCC6(CC5)CN(c5ccc7c(c5)C(=O)N(C5CCC(=O)NC5=O)C7)C6)CC4)ncc3Cl)ccc2n(C(C)C)c1=O (stereo not drawn) [Compound 69, 2-{[6-({5-chloro-2-[4-({2-[2-(2,6-dioxopiperidin-3-yl)-3-oxo-2,3-dihydro-1H-isoindol-5-yl]-2-azaspiro[3.5]nonan-7-yl}oxy)piperidin-1-yl]pyrimidin-4-yl}amino)-2-oxo-1-(propan-2-yl)-1,2-dihydroquinolin-3-yl]oxy}-N-methylacetamide]	–	–	< 10 nM	50 to 70%
CNC(=O)COc1cc2cc(Nc3nc(N4CCC(O[C@H]5C[C@H](N6CCN(c7cc(F)c(F)c8c7C(=O)N(C7CCC(=O)NC7=O)C8)CC6)C5)CC4)ncc3Cl)ccc2n(C(C)C)c1=O (stereo partly drawn) [Compound 274, 2-({6-[(5-chloro-2-{4-[(1r,3r)-3-{4-[2-(2,6-dioxopiperidin-3-yl)-6,7-difluoro-3-oxo-2,3-dihydro-1H-isoindol-4-yl]piperazin-1-yl}cyclobutoxy]piperidin-1-yl}pyrimidin-4-yl)amino]-2-oxo-1-(propan-2-yl)-1,2-dihydroquinolin-3-yl}oxy)-N-methylacetamide]	< 50%	10 to 50 nM	–	–
CNC(=O)COc1cc2cc(Nc3nc(N4CCN(CC5CCN(c6cc(F)cc7c6CN(C6CCC(=O)NC6=O)C7=O)CC5)CC4)ncc3Cl)ccc2n(C(C)C)c1=O (stereo not drawn) [Compound 105, 2-{[6-({5-chloro-2-[4-({1-[2-(2,6-dioxopiperidin-3-yl)-6-fluoro-1-oxo-2,3-dihydro-1H-isoindol-4-yl]piperidin-4-yl}methyl)piperazin-1-yl]pyrimidin-4-yl}amino)-2-oxo-1-(propan-2-yl)-1,2-dihydroquinolin-3-yl]oxy}-N-methylacetamide]	–	–	< 10 nM	50 to 70%
CNC(=O)COc1cc2cc(Nc3nc(N4CCC(O[C@H]5C[C@H](N6CC[C@@H](c7ccc8c(c7F)CN(C7CCC(=O)NC7=O)C8=O)C(C)(C)C6)C5)CC4)ncc3Cl)ccc2n(C(C)C)c1=O (stereo partly drawn) [Compound 430, 2-({6-[(5-chloro-2-{4-[(1r,3r)-3-[(4R)-4-[2-(2,6-dioxopiperidin-3-yl)-4-fluoro-1-oxo-2,3-dihydro-1H-isoindol-5-yl]-3,3-dimethylpiperidin-1-yl]cyclobutoxy]piperidin-1-yl}pyrimidin-4-yl)amino]-2-oxo-1-(propan-2-yl)-1,2-dihydroquinolin-3-yl}oxy)-N-methylacetamide]	≥ 70%	< 10 nM	–	–
CNC(=O)COc1cc2cc(Nc3nc(N4CCC(F)(CN5CCC6(CC5)CN(c5ccc7c(c5)CN(C5CCC(=O)NC5=O)C7=O)C6(C)C)CC4)ncc3Cl)ccc2n(C(C)C)c1=O (stereo not drawn) [Compound 382, 2-{[6-({5-chloro-2-[4-({2-[2-(2,6-dioxopiperidin-3-yl)-1-oxo-2,3-dihydro-1H-isoindol-5-yl]-1,1-dimethyl-2,7-diazaspiro[3.5]nonan-7-yl}methyl)-4-fluoropiperidin-1-yl]pyrimidin-4-yl}amino)-2-oxo-1-(propan-2-yl)-1,2-dihydroquinolin-3-yl]oxy}-N-methylacetamide]	≥ 70%	< 10 nM	–	–
